Columns and labels:
skin [1] = settings: in vivo; cited from earlier work
[2] = test system: dorsal skin of hairless mice; experiment: β-damascenone-induced sunburn protection study in hairless mice; format: in vivo, mouse; settings: read 5 days later
Text: The present experiment will be performed for evaluating the effectiveness and persistence of sunburn protection afforded by different doses and exposure regimens of a test terpene, β-damascenone. Female SKH-1 strain mice, obtained from Charles River Breeding Labs, Wilmington, Mass., will be fed per os various amounts of the terpene as indicated in the following Tables 4 and 5.

skin [3] = settings: in vivo; cited from earlier work; remark: listed apart in the source
[4] = test system: skin of SKH1 hairless mice; experiment: Sunburn (erythema) prevention by terpenes in UVR-exposed hairless mice; settings: 4 daily 30 microL droplets per os before 15 minute exposure to 3.0 kJ/m2 UVR
Procedure: All experiments were performed with female hairless mice (SKH1) utilizing solar spectrum ultraviolet radiation (UVR). Each experiment was performed in triplicate including controls and UVR-exposed mice and included a total of 22 mice per experiment for a total of 66 mice. The protocol included untreated mice, UVR-irradiated mice as controls for the terpene treatments, UVR+terpene mice and terpene-only mice.
Four solar simulating FS-20 fluorescent lamps were used to deliver 3 kJ/m^2 measured by a calibrated International Light UV radiometer at the lamp distance between 20 to 24 cm. The UVR dose was selected to be just above the minimal erythemal dose for producing a ‘sunburn’ reaction in mouse skin (this is very similar to the minimal erythemal dose of fair-skinned humans).
Each terpene was given to each mouse per os (by mouth) in 15-30 μL droplets (˜15-30 μg) via micropipette once each day for 4 consecutive days prior to and/or subsequent to UVR exposure. Animals were observed and photographed every 24 hours for a period of 6-7 days after the irradiation. Each terpene was administered in pure form.
The UVR exposure of 3 kJ/m^2 was delivered seven (7) days after the last dose was administered. The animals were observed and photographed. […] Liponeate, a triglyceride fraction of coconut oil was used as a diluent. Concentration 1, 10 and 100% were tested. […]

[5] = test system: stratum corneum of Skh1 mouse skin; experiment: Thickness of nucleated keratinocyte portion of epidermis versus stratum corneum, H&E histology; format: in vivo
Text: 1. Skin and epidermal thickness (as measured by histology);

[6] = test system: mouse skin gene expression; experiment: Gene expression microarray analysis of mouse skin; format: in vivo; settings: for loricrin and filaggrin and vascular endothelial growth factor (VEGF) genes / matrix metalloproteinases: ingestion, animal models; for inflammation genes induced by UVR: per os daily for 4 days in 30 microL droplets prior to irradiation
Procedure: Animals for the histology and microarray analysis were euthanized 24 hours after 4 days of terpene pre-feed and the UVR exposure.
Gene expression microarray analysis was performed as follows: RNA was extracted from a 0.1 g sample of mouse skin and an equal quantity of keratinocytes by using the TRIZOL reagent (Invitrogen, Carlsbad, Calif., USA) according to the manufacture's instructions and 200 μg of total RNA was used for the isolation of poly A+mRNA by using Oligotex mRNA mini columns (QIAGEN, Valencia, Calif., USA). The final centrifugation was performed after the incubation with 1/10 volume of 3.0 M NaOAc, 2.5 volumes of ethanol and 1 μl glycogen (Boehringer Mannheim GmbH, Mannheim, Germany) at −20° C. overnight. Then the pellet was resuspended in diethylpyrocarbonate (DEPC)-treated water. RNA was labeled with biotin and hybridized to a Mouse genome 430_2 GeneChip® microarray (Affymetrix, Inc. Santa Clara, Calif., USA). Data from the Affymetrix mouse expression array chip were imported into the BRB-ArrayTools Version 3.3.0 developed by the Biometric Research Branch of the U.S. National Cancer Institute for normalization and analysis. […] A value of P≤0.001 was chosen as statistically significant. […] For these calculations the entire list of genes on the Affymetrix (mouse 430_2) microarray was used as the reference list.
Mice were treated with either UVR or UVR+beta-damascenone, and samples of tissue were removed from the dorsal skin for RNA extraction and analysis on an Affymetrix Microarray System utilizing mouse whole genome array chips Affy 430_2. The UVR sample served as the control in this preliminary experiment.

[7] = in vivo; cited from earlier work
[8] = test system: human transplanted pancreatic adenocarcinomas; settings: growth of human transplanted pancreatic adenocarcinomas; cited from earlier work
colon cancer = settings: rats, 1,2-dimethylhydrazine induced, 8 mg/kg, p<0.01; cited from earlier work
skin inflammation = settings: topical preventive treatment 3 days at 10 mg/kg/day before induction; cited from earlier work
breast cancer = settings: rats, ionizing radiation or DMBA; cited from earlier work
[9] = test system: inflammation-relevant gene expression; settings: rat skin, x-rays; cited from earlier work
[10] = Group 2, 20 uL × 4 by feeding tube, UVR 1.5 kJ/m^2 5 days after final dose
[11] = Group 3, 10 uL × 4 by feeding tube, UVR 1.5 kJ/m^2 5 days after final dose
[12] = Group 4 (replication of group 2), 20 uL × 4 by feeding tube, UVR 1.5 kJ/m^2 5 days after final dose
[13] = Group 5, 10 uL × 1 by feeding tube, UVR 1.5 kJ/m^2 5 days after dose
[14] = Group 6, 20 uL × 1 by feeding tube, UVR 1.5 kJ/m^2 5 days after dose
[15] = Group 7, 40 uL × 1 by feeding tube, UVR 1.5 kJ/m^2 5 days after dose
[16] = Groups 2 + 4 combined, 20 uL × 4, UVR 1.5 kJ/m^2 5 days after final dose
[17] = Group 2, 20 μL ×1 oral, section 1 d after final administration, total 20 μL
[18] = Group 3, 10 μL ×4 oral, section 1 d after final administration, total 40 μL
[19] = Group 4, 20 μL ×4 oral, section 1 d after final administration, total 80 μL
[20] = Group 5, 80 μL ×1 oral, section 1 d after final administration, total 80 μL
[21] = Group 6, 20 μL ×1 oral, section 5 d after final administration, total 20 μL
[22] = Group 7, 10 μL ×4 oral, section 5 d after final administration, total 40 μL
[23] = Group 8, 80 μL ×1 oral, section 5 d after final administration, total 80 μL
[24] = Group 9, 20 μL ×4 oral, section 5 d after final administration, total 80 μL
[25] = Group 10, 10 μL ×4 oral, section 12 d after final administration, total 40 μL
[26] = Group 11, 20 μL ×4 oral, section 12 d after final administration, total 80 μL
[27] = day 5 after the exposures were completed
[28] = UVR+beta-damascenone relative to UVR only

## C/C=C/C(=O)C1=C(C)C=CCC1(C)C [beta-damascenone]
Skin [1]
  skin irritation: No skin irritation
[2]; [10]
  Areas with no sunburn: 11.0
  Areas with sunburn: 1.0
[2]; [11]
  Areas with no sunburn: 6.0
  Areas with sunburn: 2.0
[2]; [12]
  Areas with no sunburn: 8.0
  Areas with sunburn: 0.0
[2]; [13]
  Areas with no sunburn: 7.0
  Areas with sunburn: 5.0
[2]; [14]
  Areas with no sunburn: 10.0
  Areas with sunburn: 2.0
[2]; [15]
  Areas with no sunburn: 3.0
  Areas with sunburn: 1.0
[2]; [16]
  Areas with no sunburn: 19.0
  Areas with sunburn: 1.0
Skin [3]
  phototoxicity or photoallergenity: No phototoxicity or photoallergenity
[4]
  cutaneous inflammation and erythema after UVR: blocked
[5]; Average (Groups 2-11)
  Living Epidermis Thickness: 34.6 arbitrary units
  Stratum Corneum Thickness: 21.0 arbitrary units
[5]; [17]
  Living Epidermis Thickness: 35.0 arbitrary units
  Stratum Corneum Thickness: 20.0 arbitrary units
[5]; [18]
  Living Epidermis Thickness: 37.0 arbitrary units
  Stratum Corneum Thickness: 15.3 arbitrary units
[5]; [19]
  Living Epidermis Thickness: 36.0 arbitrary units
  Stratum Corneum Thickness: 17.8 arbitrary units
[5]; [20]
  Living Epidermis Thickness: 36.0 arbitrary units
  Stratum Corneum Thickness: 16.3 arbitrary units
[5]; [21]
  Living Epidermis Thickness: 38.5 arbitrary units
  Stratum Corneum Thickness: 37.0 arbitrary units
[5]; [22]
  Living Epidermis Thickness: 40.2 arbitrary units
  Stratum Corneum Thickness: 20.2 arbitrary units
[5]; [23]
  Living Epidermis Thickness: 36.2 arbitrary units
  Stratum Corneum Thickness: 25.5 arbitrary units
[5]; [24]
  Living Epidermis Thickness: 32.5 arbitrary units
  Stratum Corneum Thickness: 21.2 arbitrary units
[5]; [25]
  Living Epidermis Thickness: 30.7 arbitrary units
  Stratum Corneum Thickness: 18.7 arbitrary units
[5]; [26]
  Living Epidermis Thickness: 23.3 arbitrary units
  Stratum Corneum Thickness: 21.7 arbitrary units
[5]; [27]
  nucleated keratinocytes in the epidermis: no corresponding increase
  thickness of the stratum corneum: highly significant increases
[5]; mouse, in vivo
  stratum corneum thickness (FIG. 4): consistently thickened
[6]; [28]
  inflammation-relevant genes: strongly down-regulated
  number of gene categories significantly (p<0.05) down-regulated: 13
  only significantly (p<0.05) altered up-regulated category at level 4 of Gene Ontology Tree: epidermal cell differentiation
[6]
  loricrin and filaggrin and vascular endothelial growth factor (VEGF) genes: upregulation
  matrix metalloproteinases: downregulation
  inflammation genes induced by UVR: blocked
[7]
  LD50: greater than 2.0 g/kg

## CC(C)=CCC/C(C)=C/CO [Geraniol]
[8]
  effectiveness relative to perillyl alcohol: about 5 fold

## C=C(C)[C@@H]1CCC2=CC(=O)C[C@@H](C)[C@]2(C)C1 [nootkatone]
[4]
  cutaneous inflammation and erythema after UVR: blocked
[6]
  loricrin and filaggrin and vascular endothelial growth factor (VEGF) genes: upregulation
  matrix metalloproteinases: downregulation
  inflammation genes induced by UVR: blocked

## Oc1ccc(C=Cc2cc(O)cc(O)c2)cc1 [resveratrol]
Colon cancer
  inhibition of colon cancer: 67%

## C=C(C)[C@@H]1CC=C(CO)CC1 [perillyl alcohol, reference compound]
Skin inflammation
  effect on skin inflammation: significant effect
Breast cancer
  initiation of breast cancer: almost completely prevented

## C=C(C)[C@H]1CC=C(C)CC1 [d-limonene]
Breast cancer
  initiation of breast cancer: almost completely prevented

## vitamin A
[9]
  inflammation-relevant gene expression alterations blocked: about 80%

From patent publication US10226435B2, “Compositions and methods for restoring the stratum corneum and treating dermatological diseases” (New York University, priority 2011, dated 2019)
